Source: patent US11135163B2, “Peptide hydrogel properties and its applications” (Kansas State University Research Foundation, priority 2014, dated 2021)

Legend:
[1] = Hydrogelation and dynamic rheology of h9e in MEM; assay type: physicochemical; conditions: for stable storage modulus: 37° C.
Description: Lyophilized peptide was added to 100 mM sodium bicarbonate and completely dissolved by magnetic stirring for 3 hours with a final peptide concentration of 10 mM. For hydrogelation, peptide solution was added into MEM with 10% FBS and the mixture was hand-shaken for about 10 seconds. The peptide hydrogel formed within 15 minutes at room temperature with final peptide concentrations of 1, 2, and 3 mM. The storage and loss moduli (G′ and G″, respectively) of h9e hydrogels were determined on a C-VOR 150 rheometer system (Malvern instruments, Malvern, Worcestershire WR141XZ, United Kingdom) with a 20-mm diameter parallel plate geometry and 500 μm gap size. To mimic cell physiological conditions, all rheological tests were performed at 37° C. unless otherwise specified. The peptide and MEM mixture was placed on the measuring system immediately after mixing for a gel-forming rate test. Single frequency (1 Hz) and steady shear strain (1%) were selected for a 1 hour test. To determine the hydrogel reassembly capability, the peptide and MEM mixture was incubated at room temperature overnight for hydrogelation, then transferred to a lower measuring plate for a 10 minute, single-frequency test (1 Hz, 1% strain) for stabilization. The hydrogel was broken using 1 Hz frequency and 500% shear strain for 1 minute. Resetting the instrument parameters took 1 minute, and the hydrogel moduli during the reassembly period were measured under 1 Hz frequency and 1% shear strain for 1 hour. The amplitude sweep test (strain from 1 to 500%, 1 Hz frequency) was conducted multiple times to determine hydrogel reassembly capability after each time it was destroyed. Four testing cycles were applied in this measurement and the hydrogel recovery time between every two cycles was 1, 5, and 10 minutes. Furthermore, to test the response to different environmental temperatures, the peptide hydrogel was measured under a temperature profile test with steady oscillatory frequency (1 Hz) and strain (1%). The temperature was adjusted from 4° C. to 50° C. for two testing cycles. For each cycle, the instrument's heating or cooling processes took 5 minutes, then another 5 minutes to arrive at the setting temperature (4° C. or 50° C.). To determine the G′ and G″ of hydrogel during cell isolation, 3 mM peptide hydrogel was diluted 15 times with MEM. After thorough mixing, the diluted solution was tested under 1 Hz frequency and 1% shear strain at 4° C. for 1 hour.

[2] = Oxygen transmission rate (OTR) of hydrogel; assay type: physicochemical
Description: (§1) Hydrogel: 1% h9e peptide was prepared in sodium bicarbonate solution, and 1% BSA was prepared in PBS solution as trigger solution. The h9e peptide solution and BSA solution was mixed at 1:1 volume ratio, and incubated at 37 C for 30 min to prepare hydrogel with 0.5% h9e peptide concentration and 0.5% BSA with a gel strength of about 450 Pa.
Oxygen transmission rate (OTR): The OTR of hydrogels is another important property for in vitro tissue and organ regeneration process. Standard PGmatrix hydrogels was used in this experiment. OTR is the steady state rate at which oxygen gas permeates through a material at specified conditions of temperature and relative humidity. Values are expressed in cc/m2/24 hr in metric units determined by MOCON, Inc. (Minneapolis, […].) for OTR measurement using OX-TRAN instrument according to the standard method. Both challenge gas (oxygen) and sweeper gas (nitrogen) was held at relatively humidity of 100% to avoid gel drying, and temperature will be kept at ambient. 3.75 ml hydrogel was used and spread into thin film to cover the 5 cm^2-area. Experiments were duplicated twice.

female mice of FVB = test: Immune response after subcutaneous injection of hydrogel in mice; assay type: in vivo, mouse
Description: as §1, with “37° C.” for “37 C”
Experiment: In trials #1 and #2, healthy female mice of FVB 6-15 week old were injected subcutaneously in the inguinal region with 100 or 200 uL of the hydrogel or control solutions in a blinded study. Weight and external body temperature were measured daily for up to 2 weeks.
Mammary fat pads from the inguinal region were removed at necropsy. Tissues were fixed with 10% formalin and processing for a 5 um thickness sectioning. Samples were stained with hematoxylin and eosin (H&E). Hydrogel trial 3 was completed in the same manner described above with the following exceptions. 200 uL of hydrogel or control solutions were injected subcutaneously on the back of the animal.
Microscope slide preparation: Samples of the control, and hydrogel treated tissues were submitted for histopath processing at Diagnostic Laboratory at KSU Veterinary School in Mosier Hall. Slides and paraffin blocks were labeled 1 as control and 4 as hydrogel treated, respectively. Adipose tissue samples were processed on the Sakua Tissue-Tek VIP 6, model #VIP6-A1. Then, the samples were then embedded using the Sakura Tissue-Tek Tissue Embedding Console System model #4710. For microscope slide preparation, the paraffin blocks were cut on a 1215 Leitz Rotary Microtome and sectioned at 5 microns. Sections were then mounted on a microscope slide from a water bath. H&E staining of the slides done on an automated stainer, Leica Autostainer XL, model #ST5060. Lastly, the stained slides are covered slipped by an automatic coverslippper, Leica CV5030.
Inflammatory analysis: The fixed tissues of animals without treatment, treated with PBS buffer and h9e hydrogel were further analyzed for inflammatory effects including VWF8 (blood vessel), Arginase I (wound healing macrophage), Fspl and α-smooth muscle actin (fibroblast), CCL2 (pro-inflammatory cytokine), and TGF-beta (immunosuppressive cytokine). 796 (FVB normal mammary gland) was used as negative control. Image J arbitrary unit was used to evaluate these tests using Image J software.

- stable storage modulus ([1]; 1 mM h9e in MEM): around 100 Pa
- gel strength recovered ([1]; 1 mM hydrogel, waiting time 1 min): about 73%
- gel strength recovered ([1]; 1 mM, after three shear-thinning cycles and 10 min waiting): 83%
- stable storage modulus ([1]; 2 mM h9e in MEM): ~400 Pa
- gel strength recovered ([1]; 2 mM hydrogel, waiting time 1 min): ~76%
- gel strength recovered ([1]; 2 mM, after three shear-thinning cycles and 10 min waiting): 84%
- stable storage modulus ([1]; 3 mM h9e in MEM): ~700 Pa
- gel strength recovered ([1]; 3 mM hydrogel, waiting time 1 min): ~88%
- gel strength recovered ([1]; 3 mM, after three shear-thinning cycles and 10 min waiting): 100%
- time to reach self-supporting strength (close or above 100 Pa) ([1]; 1, 2 and 3 mM h9e in MEM): ≤ 15 min
- G′ after shear-thinning ([1]; 1-3 mM hydrogels, 500% strain for 1 minute): lower than 0.2 Pa
- time to self-supporting hydrogel matrix ([1]; h9e solution added into MEM with 10% serum): ≤ 1 min
- G′ at 50° C. relative to 4° C. ([1]; temperature profile test, 1-3 mM hydrogels): 2-3 times
- OTR ([2]; 0.5% h9e, 0.5% BSA hydrogel, 100% relative humidity, ambient temperature): 3,984 cc/m^2-day
- OT rate ([2]; h9e hydrogel at 0.5% peptide concentration): about 3,984 cc/m^2 per day
- inflammatory effects compared to controls (female mice of FVB; 0.5% h9e/0.5% BSA hydrogel, subcutaneous, mice): No significant inflammatory effects
- histological images, hydrogel treated versus control (female mice of FVB; H&E staining): no significant difference
- daily activity of treated animals (female mice of FVB; up to 2 weeks): same normal daily activity
Substance: H-FLIVIGSIIGPGGDGPGGD-NH2 [h9e, FLIVIGSIIGPGGDGPGGD]
- absorption of hydrogel at necropsy (female mice of FVB; trial 3, 200 uL subcutaneously on the back): complete absorption of hydrogel
